In patent US20080113900A1, “Pharmaceutical compositions and therapeutic applications for the use of a synthetic vitamin B12 derivative, glutathionylcobalamin” (priority 2006, published 2008):
“And” between values parts separate entries of the source, which are not always exact repeats. Equal entries are not always repeated.

Tests used:
SK-HEP-1 cells [1] = experiment: Effect of high concentrations of NACCbl and GSCbl on SK-HEP-1 cells (MTS assay, 24 hours); format: cell-based, human; settings: for Cell viability by MTS assay (FIG. 13): SK-HEP-1, 3 replicates
[2] = Decomposition in PBS at 37° C. monitored by UV/Vis spectrophotometry; format: physicochemical
Description: The decomposition of GSCbl, NACCbl, and HcyCbl in PBS at 37° C. was monitored by UV/Vis spectrophotometry.

Hsp32 = Hsp32 gene expression (RT-PCR, densitometry); format: cell-based, human; settings: SK-HEP-1; Sn (IX) protoporphyrin 25 μM; Quercitin 15 μM
Description: Cells were plated into 6-, 12-, or 24-well cell culture clusters, at 2×10^3, 2×10^5, or 1×10^5 cells per well and incubated until 90% confluent. Treatments were applied as above.
Following incubation, cells were subjected to mRNA extraction followed by cDNA synthesis for each sample under test. Polymerase chain reaction cDNA templates were prepared for simplex PCR protocol. PCR products were then visualized using a UV Transilluminator and images captured using a Kodak ID gel imaging system. Densitometry and statistical analysis was then performed on each gene expression band image using PSP® v 10.0 running under Windows XP®.
mRNA extraction was performed using the Quickprep micro mRNA Purification Kit. Following incubation of cells post-treatment, the media was removed from the cells, adherent cells were re-suspended in 0.4 ml extraction buffer and 0.8 ml elution buffer at 65° C. was added.
A reaction mixture was prepared in individual microcentrifuge tubes containing 2 cDNA synthesis beads, 32 μl of the mRNA solution and 1 μl of pd(N)6. This mixture was incubated at 37° C. in a water bath for 60 minutes. After incubation, 27 μl of RNase-free DEPC treated water was added to each tube to make a total volume 60 μl. cDNA samples were prepared in duplicate. Sample 1 was used immediately in RT-PCR protocol. Sample 2 was prepared for qPCR protocol by the addition of 150 μl of 95% ice-cold ethanol and stored at −20° C.
Microcentrifuge tubes from puReTaq™Ready-To-Go™ PCR Beads containing one PCR bead were labeled for each sample required. Added to the PCR bead were 17 μl of RNase-free DEPC treated water, 1 μl sense primer, 1 μl anti-sense primer and 5 μl of the cDNA solution. RT-PCR conditions were as follows: Hsp70 and β-actin, pre-treatment step, 94° C. for 1 minute, followed by denaturing at 92° C. for 1 minute, annealing at 60° C. for 1 minute and extension at 72° C. for 1 minute. Total cycles, 30, post-treatment was then carried out at 72° C. for 10 minutes. For Hsp32, pre-treatment step, 95° C. for 2 minutes, followed by denaturing at 94° C. for 30 seconds, annealing at 58° C. for 1 minute and extension at 72° C. for 1 minute. Total cycles 45, post treatment was then carried out at 72° C. for 10 minutes. Following RT-PCR, samples were stored at −20° C.
Gels were visualised on a UV Transilluminator. Photographs were stored using a Kodak Digital camera system fitted with a UV filter set connected to a PC. Images were then transferred to the Kodak ID gel imaging system. Densitometry was performed on each gene expression band using PSP™ v10 running under Windows XP®.
Experiments were conducted using Hsp32 and Hsp 70 gene expression as the basis for study. […] The densitometric data are presented as means ±SEM of n=3 separate experiments. *p<0.05 or **p<0.01, treatment vs. control.

methionine synthase = target: T1, methionine synthase (Oryctolagus cuniculus, UniProt G1SXW3); settings: rabbit spleen extracts; cited from earlier work
T1 construct: methionine synthase activity in rabbit spleen extracts; from tissue; host or cells: rabbit spleen extract
T1 sequence (G1SXW3 1-1218): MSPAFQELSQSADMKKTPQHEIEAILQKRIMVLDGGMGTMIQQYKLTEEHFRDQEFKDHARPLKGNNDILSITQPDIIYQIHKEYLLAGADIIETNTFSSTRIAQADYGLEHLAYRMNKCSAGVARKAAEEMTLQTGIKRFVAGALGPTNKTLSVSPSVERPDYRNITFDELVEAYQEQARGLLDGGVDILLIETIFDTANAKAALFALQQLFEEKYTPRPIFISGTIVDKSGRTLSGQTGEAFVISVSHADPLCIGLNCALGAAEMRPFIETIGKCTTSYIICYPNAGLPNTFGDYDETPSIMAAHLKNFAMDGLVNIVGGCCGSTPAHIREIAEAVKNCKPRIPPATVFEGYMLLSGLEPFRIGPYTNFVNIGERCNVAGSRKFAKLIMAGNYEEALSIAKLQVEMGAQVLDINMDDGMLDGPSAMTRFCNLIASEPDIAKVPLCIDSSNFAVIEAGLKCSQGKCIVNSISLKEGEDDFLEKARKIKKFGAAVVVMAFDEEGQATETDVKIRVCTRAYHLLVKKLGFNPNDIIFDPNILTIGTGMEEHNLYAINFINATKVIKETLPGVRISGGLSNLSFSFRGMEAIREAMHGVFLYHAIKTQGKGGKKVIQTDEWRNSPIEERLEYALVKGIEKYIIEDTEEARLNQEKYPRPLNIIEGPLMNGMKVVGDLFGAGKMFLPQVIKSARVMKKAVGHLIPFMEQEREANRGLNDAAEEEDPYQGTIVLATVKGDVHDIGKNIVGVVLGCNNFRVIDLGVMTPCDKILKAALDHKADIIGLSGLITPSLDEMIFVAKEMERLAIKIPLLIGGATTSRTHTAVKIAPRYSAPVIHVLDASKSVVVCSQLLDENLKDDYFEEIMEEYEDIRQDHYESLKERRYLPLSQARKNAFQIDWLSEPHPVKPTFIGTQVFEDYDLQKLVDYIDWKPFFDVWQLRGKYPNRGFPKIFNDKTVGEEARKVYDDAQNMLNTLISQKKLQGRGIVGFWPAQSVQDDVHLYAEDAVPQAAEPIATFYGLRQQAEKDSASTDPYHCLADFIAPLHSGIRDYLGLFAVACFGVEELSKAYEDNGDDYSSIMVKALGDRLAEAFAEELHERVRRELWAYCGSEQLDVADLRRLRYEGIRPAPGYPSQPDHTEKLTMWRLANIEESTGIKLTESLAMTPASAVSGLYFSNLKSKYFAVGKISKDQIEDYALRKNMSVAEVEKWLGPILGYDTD

SK-HEP-1 cells [3] = experiment: Protection of endothelial cells from H2O2-induced cell death (MTS assay); format: cell-based, human; parameters: key to Cell viability (MTS assay): cell viability as % survival; settings: for Cell viability (MTS assay): SK-HEP-1, n = 6 replicates
Description: The effect of increasing concentrations of NACCbl and GSCbl to protect endothelial cells from the effect of H2O2 was assessed. […] Cell viability was determined by MTS® assay. […] FIG. 3 illustrates that NACCbl and GSCbl protect endothelial cells from the effect of H2O2. […] Cell viability was determined by MTS® assay. […] There was no difference between the protection afforded by NACCbl and that by GSCbl. Both required 100 μM to achieve >80% survival.

SK-HEP-1 cells [4] = experiment: Protection of endothelial cells from homocysteine-induced cell death (MTS assay); format: cell-based, human
Description: The effect of a constant concentration of NACCbl and GSCbl to protect cells against variable concentrations of homocysteine was assessed. […] Cell viability was determined by MTS® assay. Data shown in FIG. 4 are representative of means ±SE of 6 independent samples. FIG. 4 illustrates that NACCbl (▪) and GSCbl (▴) protect endothelial cells from the effect of homocysteine. […] Cell viability was determined by MTS® assay. […] There was a decrease in protection as homocysteine concentration increased, but there was still ˜60% survival at 50 μM homocysteine.
The data was normalized (log 2 and log 10) as shown in FIGS. 16 and 17 and Tables 16 and 17, respectively, below.

SK-HEP-1 cells [5] = experiment: Protection of endothelial cells from H2O2-induced cell death (MTS assay); format: cell-based, human; parameters: key to Cell viability (MTS assay): cell viability as % survival; settings: SK-HEP-1, n = 6 replicates
SK-HEP-1 cells [6] = experiment: Protection from homocysteine-induced apoptosis, Caspase-3 activity (apoptosis assay); format: cell-based, human; settings: 30 μM two hours, then 30 μM homocysteine two hours
Description: Caspase 3 is activated when cells undergo apoptosis. Caspase-3 assay is a standard for apoptosis assay. Homocysteine is a known inducer of apoptosis. Cells were cultured in 96-well plates for 24 hours and then treated with reagents under test conditions. Cytotoxic agents, H2O2 and etoposide were added to negative control wells. The assay was performed according to the manufacturer's protocol, as follows: Cells were re-suspended in 100 μl of clear media and 50 μl of Caspase-3 substrate solution was immediately added to each test well. […] Cell viability was determined by MTS® assay. […] Cell viability was determined by MTS® assay.

in vitro = settings: human, SK-HEP-1 cells
SK-HEP-1 cells [7] = experiment: Effect of homocysteine and H2O2 on endothelial cell viability (MTS assay); settings: for Cell viability (MTS assay): SK-HEP-1, 2 hours, n = 6 replicates
SK-HEP-1 cells [8] = settings: 12.5 µM

## C/C1=C2N=C(/C=C3N=C(/C(C)=C4\[N-]C(C(CC(N)=O)C4(C)CCC(=O)NCC(C)OP(=O)([O-])OC4C(CO)OC(n5cnc6cc(C)c(C)cc65)C4O)C4(C)N=C1C(CCC(N)=O)C4(C)CC(N)=O)C(CCC(N)=O)C\3(C)C)C(CCC(N)=O)C/2(C)CC(N)=O.NC(CCC(=O)NC(C[S-])C(=O)NCC(=O)O)C(=O)O.[Co+3] (centres unmarked) [GSCbl, Glutathionylcobalamin]
SK-HEP-1 cells [1]; compound conc. 0.61, 24 hours
  Cell viability by MTS assay (FIG. 13): 2.554 and 2.376 and 2.53
SK-HEP-1 cells [1]; compound conc. 1.22, 24 hours
  Cell viability by MTS assay (FIG. 13): 2.347 and 2.433 and 2.503
SK-HEP-1 cells [1]; compound conc. 2.441, 24 hours
  Cell viability by MTS assay (FIG. 13): 2.527 and 2.434 and 2.46
SK-HEP-1 cells [1]; compound conc. 4.882, 24 hours
  Cell viability by MTS assay (FIG. 13): 2.543 and 2.528 and 2.519
SK-HEP-1 cells [1]; compound conc. 9.765, 24 hours
  Cell viability by MTS assay (FIG. 13): 2.532 and 2.476 and 2.42
SK-HEP-1 cells [1]; compound conc. 19.531, 24 hours
  Cell viability by MTS assay (FIG. 13): 2.553 and 2.476 and 2.42
SK-HEP-1 cells [1]; compound conc. 39.062, 24 hours
  Cell viability by MTS assay (FIG. 13): 2.492 and 2.484 and 2.468
SK-HEP-1 cells [1]; compound conc. 78.125, 24 hours
  Cell viability by MTS assay (FIG. 13): 2.444 and 2.406 and 2.402
SK-HEP-1 cells [1]; compound conc. 156.25, 24 hours
  Cell viability by MTS assay (FIG. 13): 2.407 and 2.37 and 2.318
SK-HEP-1 cells [1]; compound conc. 312.5, 24 hours
  Cell viability by MTS assay (FIG. 13): 2.306 and 2.204 and 2.138
SK-HEP-1 cells [1]; compound conc. 625, 24 hours
  Cell viability by MTS assay (FIG. 13): 2.197 and 1.912 and 1.787
SK-HEP-1 cells [1]; compound conc. 1250, 24 hours
  Cell viability by MTS assay (FIG. 13): 1.973 and 1.846 and 1.71
SK-HEP-1 cells [1]; compound conc. 2500, 24 hours
  Cell viability by MTS assay (FIG. 13): 1.775 and 1.81 and 1.896
SK-HEP-1 cells [1]; compound conc. 5000, 24 hours
  Cell viability by MTS assay (FIG. 13): 1.728 and 1.67 and 1.623
SK-HEP-1 cells [1]; compound conc. 10000, 24 hours
  Cell viability by MTS assay (FIG. 13): 1.322 and 1.342 and 1.366
SK-HEP-1 cells [1]; above 0.2 mM concentration
  Cell death compared with NACCbl: caused greater cell death than NACCbl
[2]
  t1/2: No decomposition within 20 hours
Hsp32
  Hsp32 gene expression: induce Hsp32
Methionine synthase
  Promotion of methionine synthase activity: more active than other cobalamins
SK-HEP-1 cells [3]; 25 μM H2O2 24 hours
  Difference between protection by NACCbl and by GSCbl: no difference
SK-HEP-1 cells [3]; 2 hours, then 25 μM H2O2 24 hours
  Concentration required to achieve >80% survival: 100 µM
SK-HEP-1 cells [3]; GSCbl 30 μM, above 7.5 μM H2O2
  Protection from H2O2: did not provide significant protection
SK-HEP-1 cells [3]; compound 30 μM two hours, then H2O2 200 μM a further two hours
  Cell viability (MTS assay): 1.326 and 7.153 and 3.6 and 1.942 and 5.921 and 0.7579
SK-HEP-1 cells [3]; compound concentration 6.25, 2 hours, then 25 μM H2O2 24 hours
  Cell viability (MTS assay): 48.68 and 56.26 and 45.98 and 43.35 and 42.09 and 41.96
SK-HEP-1 cells [3]; compound concentration 12.5, 2 hours, then 25 μM H2O2 24 hours
  Cell viability (MTS assay): 44.27 and 54.35 and 50.53 and 47.04 and 44.14 and 42.09
SK-HEP-1 cells [3]; compound concentration 25, 2 hours, then 25 μM H2O2 24 hours
  Cell viability (MTS assay): 41.24 and 45.5863 and 42.23 and 45.26 and 41.7 and 44.99
SK-HEP-1 cells [3]; compound concentration 100, 2 hours, then 25 μM H2O2 24 hours
  Cell viability (MTS assay): 64.62 (2×) and 77.87 and 71.61 and 72.6 and 76.5481
SK-HEP-1 cells [3]; compound concentration 200, 2 hours, then 25 μM H2O2 24 hours
  Cell viability (MTS assay): 94.07 and 100.0659 and 102.8327 and 93.87 and 105.5995 and 94.73
SK-HEP-1 cells [4]; 2 hours, then 30 μM homocysteine 24 hours
  Concentration required for >80% survival protection: 50 µM
SK-HEP-1 cells [4]; Hcy 30 μM, NAC 45 μM, GSH 100 μM, NACCbl 12.5 μM, GSCbl 15 μM
  Protection against homocysteine-induced damage compared with free thiols: superior to the free thiols
SK-HEP-1 cells [4]; [Hcy] 30 μM, folate 25 μM present, [GSCbl] = 15 μM, [NACCbl] = 12.5 μM, [CNCbl] = 15 μM, [MeCbl] = 12.5 μM, [HOCbl] = 17.5 μM, [NAC] = 45 μM, [GSH] = 100 μM
  Mean (FIG. 14a, protection of SK-HEP-1 cells from Hcy in the presence of folate): 2.524
SK-HEP-1 cells [4]; compound 30 μM, 50 μM homocysteine
  Survival: ~60%
SK-HEP-1 cells [4]; pre-incubation 30 μM two hours, variable homocysteine two hours
  Protection from homocysteine-induced cell death: protected cells from homocysteine-induced cell death
SK-HEP-1 cells [5]; compound 30 μM two hours, then H2O2 0 μM
  Cell viability (MTS assay): 99.24 and 102.2264 and 105.5898 and 103.6002 and 104.0265 and 104.5476
SK-HEP-1 cells [5]; compound 30 μM two hours, then H2O2 0.781 μM a further two hours
  Cell viability (MTS assay): 96.12 and 98.39 and 97.3946 and 98.0578 and 96.02 and 95.31
SK-HEP-1 cells [5]; compound 30 μM two hours, then H2O2 1.56 μM a further two hours
  Cell viability (MTS assay): 93.56 and 90.81 (2×) and 92.33 and 88.25 and 91.8522
SK-HEP-1 cells [5]; compound 30 μM two hours, then H2O2 3.125 μM a further two hours
  Cell viability (MTS assay): 40.31 and 91.33 and 87.3046 and 82.33 and 79.77 and 77.59
SK-HEP-1 cells [5]; compound 30 μM two hours, then H2O2 6.25 μM a further two hours
  Cell viability (MTS assay): 36.52 and 39.7442 and 34.49 and 34.72 and 34.86 and 36.1
SK-HEP-1 cells [5]; compound 30 μM two hours, then H2O2 12.5 μM a further two hours
  Cell viability (MTS assay): 29.7963 and 32.02 and 36.1 and 32.4 and 29.99 and 33.92
SK-HEP-1 cells [5]; compound 30 μM two hours, then H2O2 25 μM a further two hours
  Cell viability (MTS assay): 23.54 and 26.53 and 22.93 and 24.44 and 22.03 and 20.42
SK-HEP-1 cells [5]; compound 30 μM two hours, then H2O2 50 μM a further two hours
  Cell viability (MTS assay): 15.02 and 20.8432 and 18.95 and 13.12 and 15.6324 and 17.62
SK-HEP-1 cells [5]; compound 30 μM two hours, then H2O2 100 μM a further two hours
  Cell viability (MTS assay): 10.8 and 12.36 and 11.5585 and 9.995 and 6.679 and 8.527
SK-HEP-1 cells [5]; compound concentration 3.125, 2 hours, then 25 μM H2O2 24 hours
  Cell viability (MTS assay): 20.88 and 30.9 and 21.34 and 26.8116
SK-HEP-1 cells [5]; compound concentration 50, 2 hours, then 25 μM H2O2 24 hours
  Cell viability (MTS assay): 42.69 and 45.72 and 48.16 and 46.9 and 46.77 and 51.84
SK-HEP-1 cells [6]
  Protection against apoptosis induced by homocysteine: total protection

## OO [H2O2, Hydrogen peroxide]
In vitro
  viability at 2 h, 0.781 µM: 99.4%
  viability at 2 h, 1.562 µM: 96.4%
  viability at 2 h, 6.25 µM: 32.6%
  viability at 2 h, 12.5 µM: 12.4%
  viability at 2 h, 25 µM: 3.18%
SK-HEP-1 cells [7]; SK-HEP-1, 2 hours
  Concentration achieving greater than 90% death (<10% survival): 12.5 µM
SK-HEP-1 cells [7]; SK-HEP-1, 2 hours, P<0.001
  Concentration sufficient to kill cultured endothelial cells: ≥ 3 μm
SK-HEP-1 cells [7]; 0.781 μM
  Cell viability (MTS assay): 102.4429 and 98.07 and 98.74 and 102.3076 and 99.02
SK-HEP-1 cells [7]; 1.562 μM
  Cell viability (MTS assay): 96.08 and 96.67 and 98.97 and 85.98
SK-HEP-1 cells [7]; 3.125 μM
  Cell viability (MTS assay): 46.88 and 52.02 and 50.62 and 52.38 and 82.7345 and 84.54
SK-HEP-1 cells [7]; 6.25 μM
  Cell viability (MTS assay): 33.89 and 32.31 and 35.2 and 32.54 and 30.46
SK-HEP-1 cells [7]; 25 μM
  Cell viability (MTS assay): 3.63 (2×) and 3.225 and 3.27 and 3.585
SK-HEP-1 cells [7]; 50 μM
  Cell viability (MTS assay): 0.4284 and 0.06765 and 0.4735
SK-HEP-1 cells [8]
  viability: 11.3% and 10.1% and 11.8% and 11.7% and 12.4%
